In data set [1] the target is T1, FBXO44^FBA (Homo sapiens, UniProt Q9H4M3).
T1 construct: we expressed and purified only this domain for all in vitro studies; 6xHis (N, cleaved yes); MBP (N, cleaved yes); made in house; host or cells: Escherichia coli Rosetta BL21 (λDE3)
T1 sequence (Q9H4M3 71-252 limits assumed): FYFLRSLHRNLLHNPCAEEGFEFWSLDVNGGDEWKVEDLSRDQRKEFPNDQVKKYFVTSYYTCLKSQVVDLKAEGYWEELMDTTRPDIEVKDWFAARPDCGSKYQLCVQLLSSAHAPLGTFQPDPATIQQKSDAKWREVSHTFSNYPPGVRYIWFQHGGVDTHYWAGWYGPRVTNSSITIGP
The data set can be described thus: Surface plasmon resonance, immobilized RGS2^5–16 peptide. Particulars: Biacore X100; peptide immobilized on CM5 chip by amine coupling; FBXO44^FBA analyte 0.29–75 μM, contact time 60 s; nonlinear fit of saturation binding; preliminary. From the text:
(§1) However, evidence of a direct interaction between RGS2 and FBXO44 has, until now, not yet been established. Thus, we first aimed to verify that purified FBXO44 would bind the degron sequence in vitro. […] This also circumvented the issue that full-length FBXO44 (as well as all other F-box proteins) is very difficult to express in the absence of an adaptor protein, such as Skp1 ([30]). To test the ability of the FBA domain to bind the RGS2 degron specifically, a peptide corresponding to residues Met^5–Met^16 (MFLAVQHDRCPM; herein referred to as RGS2^5–16; Fig. 1A) was dotted onto a polyvinylidene difluoride (PVDF) membrane at increasing amounts (Fig. 1B). […] The membrane was then incubated with FLAG-tagged FBXO44 FBA domain (FBXO44^FBA) and subjected to immunoblotting using a FLAG antibody. […] To get an estimate of the binding affinity between FBXO44^FBA, we next performed surface plasmon resonance (SPR) with the RGS2^5–16 peptide anchored on the chip and FBXO44^FBA as the analyte.
RGS2^5–16 peptide was immobilized onto a CM5 chip (Cytiva; BR100012) using amine coupling (Cytiva; BR100557) following the manufacturer's protocol. RGS2^5–16 peptide (150 μg/ml) in 10 mM NaOAc, pH 4.0, was loaded into the Biacore X100 sample rack. […] The RU at equilibrium was subtracted from the nonspecific binding detected in Fc1 and measured for each concentration. […]
In general terms: In SPR one partner is held on a chip, and binding of the other changes the refractive index at the surface.

For data set [2] the following is noted: treatment of certain blood cancers; background statement; cited from earlier work. From the text:
RGS2 is rapidly and constitutively degraded by the ubiquitin–proteasomal system ([12], [13]). Dysfunction of this crucial system can lead to accumulation of misfolded or aged proteins, cell cycle arrest, and uncontrolled cell proliferation ([14], [15], [16], [17]), driving various pathologies, including multiple cancers and cardiovascular disease ([18], [19]). Proteasome inhibitors, such as bortezomib (Velcade) and carfilzomib, are used in the treatment of certain blood cancers ([20], [21]). However, the severe side effects associated with these drugs, including neuropathies, fatigue, and anem ...

Data set [3] has as its target T1, FBXO44^FBA. The data set can be described thus: Dot blot of FLAG-FBXO44^FBA binding to immobilized peptide. Particulars: peptide spotted on PVDF at increasing amounts; 2 μg/ml FLAG-FBXO44^FBA overnight at 4 °C; anti-FLAG.
Source text: as §1
Figure 1 A peptide representing the degron in RGS2 binds FBXO44^FBAin vitro.A, sequence and schematic of the RGS2^5–16 peptide. B, a representative dot blot showing binding of FBXO44^FBA to immobilized RGS2^5–16 peptide. […] The RU at equilibrium was subtracted from the nonspecific binding detected in Fc1 and measured for each concentration. […]

A word on the Kd: it is the concentration at which binding is half-saturated.

Peptide text beside a SMILES is read from it.

On to `CSCC[C@H](NC(=O)[C@@H]1CCCN1C(=O)[C@H](CCCNC(=N)N)NC(=O)[C@H](CS)NC(=O)[C@H](CC(=O)O)NC(=O)[C@H](Cc1c[nH]cn1)NC(=O)[C@H](CCC(N)=O)NC(=O)[C@@H](NC(=O)[C@H](C)NC(=O)[C@H](CC(C)C)NC(=O)[C@H](Cc1ccccc1)NC(=O)[C@@H](N)CCSC)C(C)C)C(=O)O` [RGS2^5–16] (H-MFLAVQHDCRPM-OH), for which, on FBXO44^FBA [1], the Kd is 2090 nM.
For `CC(C)C[C@H](NC(=O)[C@H](Cc1ccccc1)NC(=O)c1cnccn1)B(O)O` [bortezomib], the severe side effects entry in data set [2] was “neuropathies, fatigue, and anemia”.
In the case of `CC(C)C[C@H](NC(=O)[C@H](CCc1ccccc1)NC(=O)CN1CCOCC1)C(=O)N[C@@H](Cc1ccccc1)C(=O)N[C@@H](CC(C)C)C(=O)[C@@]1(C)CO1` [carfilzomib], the severe side effects result in data set [2] is “neuropathies, fatigue, and anemia”.
With “MCKGLAALPAT [RGS4^1–11, peptide corresponding to the first 11 residues in RGS4, negative control]”, the “FLAG immunoreactivity (FBXO44^FBA binding)” value at FBXO44^FBA [3] is reported as “no signal detected”.

The record behind these values is article PMC12554172, “Systematic analysis of the RGS2 degron reveals characteristics of substrate recognition by the F-box protein FBXO44” (The Journal of Biological Chemistry, 2025).
